Measured values reported in patent US8410153B2, “Naphthalene isoxazoline invertebrate pest control agents” (E.I. du Pont de Nemours and Company, priority 2007, dated 2013).

Legend:
Format in all cases: in vivo
[1] = test system: diamondback moth (Plutella xylostella); experiment: Test A: control of diamondback moth on radish plant, foliar spray; conditions: sprayed at 50 ppm, held 6 days
How it was run: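 Radish plants 12–14 days old, pre-infested with about 50 neonate larvae, sprayed at 50 ppm in 10% acetone/water with 300 ppm X-77 surfactant; three replicates. After 6 days at 25° C and 70% RH, feeding damage was scored visually and mortality counted.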

[2] = test system: fall armyworm (Spodoptera frugiperda); experiment: Test B: control of fall armyworm on corn (maize) plant, foliar spray; conditions: sprayed at 50 ppm
How it was run: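 4-5-day-old corn plants pre-infested with 10-15 1-day-old larvae on insect diet, then sprayed with compound at 50 ppm in 10% acetone/90% water with 300 ppm surfactant, three replicates. Held 6 days at 25° C, 70% RH; feeding damage assessed visually and mortality rated.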

[3] = test system: western flower thrips (Frankliniella occidentalis); experiment: Test E: control of western flower thrips on Soleil bean plant, contact and/or systemic; conditions: held 6 days
How it was run: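 5–7-day-old Soleil bean plants were sprayed at 250 or 50 ppm in 10% acetone/90% water with 300 ppm X-77 surfactant, three replicates. After drying 1 h, 22–27 adult thrips were added per unit. Mortality and plant damage were rated after 6 days at 25 °C and 45–55% RH.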

Measured: levels of control efficacy (20% or less feeding damage or 80% or more mortality)

O=C(CNC(=O)c1ccc(C2=NOC(c3cc(Cl)cc(OC(F)(F)F)c3)(C(F)(F)F)C2)c2ccccc12)NCC(F)(F)F (racemic) [Compound 136]
very good to excellent: [1] | [2] | [3]; sprayed at 50 ppm

CNC(=O)CNC(=O)c1ccc(C2=NOC(c3cc(Br)cc(C(F)(F)F)c3)(C(F)(F)F)C2)c2ccccc12 (racemic) [Compound 143]
very good to excellent: [1] | [2] | [3]; sprayed at 50 ppm

CCNC(=O)CNC(=O)c1ccc(C2=NOC(c3cc(Br)cc(C(F)(F)F)c3)(C(F)(F)F)C2)c2ccccc12 (racemic) [Compound 144]
very good to excellent: [1] | [2] | [3]; sprayed at 50 ppm

O=C(CNC(=O)c1ccc(C2=NOC(c3cc(Cl)cc(Cl)c3)(C(F)(F)F)C2)c2ccccc12)NCC(F)(F)F (stereo not drawn) [Compound 1]
very good to excellent: [1] | [2] | [3]; sprayed at 50 ppm | [3]; sprayed at 250 ppm

CC(C)(NC(=O)c1ccc(C2=NOC(c3cc(Cl)cc(Cl)c3)(C(F)(F)F)C2)c2ccccc12)C(=O)NCC(F)(F)F (stereo not drawn) [Compound 4]
very good to excellent: [1] | [2] | [3]; sprayed at 50 ppm | [3]; sprayed at 250 ppm

CC(C)NC(=O)CNC(=O)c1ccc(C2=NOC(c3cc(Cl)cc(Cl)c3)(C(F)(F)F)C2)c2ccccc12 (stereo not drawn) [Compound 5]
very good to excellent: [1] | [2] | [3]; sprayed at 50 ppm | [3]; sprayed at 250 ppm

CC(C)CNC(=O)CNC(=O)c1ccc(C2=NOC(c3cc(Cl)cc(Cl)c3)(C(F)(F)F)C2)c2ccccc12 (stereo not drawn) [Compound 6]
very good to excellent: [1] | [2] | [3]; sprayed at 50 ppm | [3]; sprayed at 250 ppm

CCN(C)C(=O)CNC(=O)c1ccc(C2=NOC(c3cc(Cl)cc(Cl)c3)(C(F)(F)F)C2)c2ccccc12 (stereo not drawn) [Compound 7]
very good to excellent: [1] | [2] | [3]; sprayed at 50 ppm | [3]; sprayed at 250 ppm

CCNC(=O)CNC(=O)c1ccc(C2=NOC(c3cc(Cl)cc(Cl)c3)(C(F)(F)F)C2)c2ccccc12 (stereo not drawn) [Compound 8]
very good to excellent: [1] | [2] | [3]; sprayed at 50 ppm | [3]; sprayed at 250 ppm

O=C(NCCO)c1ccc(C2=NOC(c3cc(Cl)cc(Cl)c3)(C(F)(F)F)C2)c2ccccc12 (stereo not drawn) [Compound 11]
very good to excellent: [1] | [2] | [3]; sprayed at 50 ppm | [3]; sprayed at 250 ppm

O=C(CNC(=O)c1ccc(C2=NOC(c3cc(Cl)cc(Cl)c3)(C(F)(F)F)C2)c2ccccc12)NCCF (stereo not drawn) [Compound 12]
very good to excellent: [1] | [2] | [3]; sprayed at 50 ppm | [3]; sprayed at 250 ppm

CSCCNC(=O)c1ccc(C2=NOC(c3cc(Cl)c(Cl)c(Cl)c3)(C(F)(F)F)C2)c2ccccc12 (stereo not drawn) [Compound 15]
very good to excellent: [1] | [2] | [3]; sprayed at 50 ppm | [3]; sprayed at 250 ppm

CSCCNC(=O)c1ccc(C2=NOC(c3cc(Cl)cc(Cl)c3)(C(F)(F)F)C2)c2ccccc12 (stereo not drawn) [Compound 17]
very good to excellent: [1] | [2] | [3]; sprayed at 50 ppm | [3]; sprayed at 250 ppm

C[S+]([O-])CCNC(=O)c1ccc(C2=NOC(c3cc(Cl)cc(Cl)c3)(C(F)(F)F)C2)c2ccccc12 (stereo not drawn) [Compound 18]
very good to excellent: [1] | [2] | [3]; sprayed at 50 ppm | [3]; sprayed at 250 ppm

O=C(CNC(=O)c1ccc(C2=NOC(c3cc(Cl)c(Cl)c(Cl)c3)(C(F)(F)F)C2)c2ccccc12)NCC(F)(F)F (stereo not drawn) [Compound 19]
very good to excellent: [1] | [2] | [3]; sprayed at 50 ppm | [3]; sprayed at 250 ppm

CS(=O)(=O)CCNC(=O)c1ccc(C2=NOC(c3cc(Cl)cc(Cl)c3)(C(F)(F)F)C2)c2ccccc12 (stereo not drawn) [Compound 20]
very good to excellent: [1] | [2] | [3]; sprayed at 50 ppm | [3]; sprayed at 250 ppm

CSCCNC(=O)c1ccc(C2=NOC(c3cc(Br)cc(Br)c3)(C(F)(F)F)C2)c2ccccc12 (stereo not drawn) [Compound 21]
very good to excellent: [1] | [2] | [3]; sprayed at 50 ppm | [3]; sprayed at 250 ppm

CSCCCNC(=O)c1ccc(C2=NOC(c3cc(Cl)cc(Cl)c3)(C(F)(F)F)C2)c2ccccc12 (stereo not drawn) [Compound 22]
very good to excellent: [1] | [2] | [3]; sprayed at 50 ppm | [3]; sprayed at 250 ppm

O=C(CNC(=O)c1ccc(C2=NOC(c3cc(Br)cc(Br)c3)(C(F)(F)F)C2)c2ccccc12)NCC(F)(F)F (stereo not drawn) [Compound 23]
very good to excellent: [1] | [2] | [3]; sprayed at 50 ppm | [3]; sprayed at 250 ppm

CC(C)(C)NC(=O)CNC(=O)c1ccc(C2=NOC(c3cc(Cl)cc(Cl)c3)(C(F)(F)F)C2)c2ccccc12 (stereo not drawn) [Compound 24]
very good to excellent: [1] | [2] | [3]; sprayed at 250 ppm

CCC(CC)NC(=O)CNC(=O)c1ccc(C2=NOC(c3cc(Cl)cc(Cl)c3)(C(F)(F)F)C2)c2ccccc12 (stereo not drawn) [Compound 25]
very good to excellent: [1] | [2] | [3]; sprayed at 250 ppm

CSCCC(C)NC(=O)c1ccc(C2=NOC(c3cc(Cl)cc(Cl)c3)(C(F)(F)F)C2)c2ccccc12 (stereo not drawn) [Compound 26]
very good to excellent: [1] | [2] | [3]; sprayed at 50 ppm | [3]; sprayed at 250 ppm

CSCC(C)(C)NC(=O)c1ccc(C2=NOC(c3cc(Cl)cc(Cl)c3)(C(F)(F)F)C2)c2ccccc12 (stereo not drawn) [Compound 27]
very good to excellent: [1] | [2] | [3]; sprayed at 50 ppm | [3]; sprayed at 250 ppm
